Source: US20110098325A1, “PYRIDINE BENZAMIDES AND PYRAZINE BENZAMIDES USED AS PKD INHIBITORS” (CANCER RESEARCH TECHNOLOGY LIMITED, priority 2006, published 2011)

biological target: T1, Murine PKD1 kinase domain (Mus musculus, UniProt Q62101); test: PKD1 (Murine Kinase Domain) Enzyme Activity Assay (IMAP fluorescence polarisation); assay type: biochemical; conditions: 10 μM ATP, 60 minutes, room temperature
T1 construct: hexahistidine (pFastBac HTb leader) (N); made in house; host or cells: Sf9 insect cells, baculovirus (Bac-to-Bac HT, pFastBac HTb)
T1 sequence (Q62101 with tags, fused parts or gaps R683W): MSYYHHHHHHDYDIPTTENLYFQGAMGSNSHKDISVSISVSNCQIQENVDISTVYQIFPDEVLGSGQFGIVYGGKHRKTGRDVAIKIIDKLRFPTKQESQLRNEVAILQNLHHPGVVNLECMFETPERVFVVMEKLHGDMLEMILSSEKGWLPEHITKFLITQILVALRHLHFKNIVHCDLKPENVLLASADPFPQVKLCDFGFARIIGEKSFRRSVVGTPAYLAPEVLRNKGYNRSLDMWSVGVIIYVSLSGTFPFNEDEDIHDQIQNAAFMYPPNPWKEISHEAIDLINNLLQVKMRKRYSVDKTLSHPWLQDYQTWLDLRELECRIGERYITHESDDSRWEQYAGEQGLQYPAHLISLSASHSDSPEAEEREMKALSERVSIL

Q: With CC(C)Oc1cccc(-c2cc(-c3cccc(C(=O)NCCN(C)C)c3)cnc2N)c1 [Y-046, 3-[6-Amino-5-(3-isopropoxy-phenyl)-pyridin-3-yl]-N-(2-dimethylamino-ethyl)-benzamide] as the compound, how does the IC50 read?
A: Its IC50 is 1 to 10 µM.

Q: With COCc1cccc(-c2cc(-c3cccc(C(=O)NCCN(C)C)c3)cnc2N)c1 [Y-047, 3-[6-Amino-5-(3-methoxymethyl-phenyl)-pyridin-3-yl]-N-(2-dimethylamino-ethyl)-benzamide] as the compound, how does the IC50 read?
A: The IC50 was 1 to 10 µM.

Q: For COc1cccc(-c2cc(-c3cccc(C(=O)NCCN(C)C)c3)cnc2N)c1 [Y-048, 3-[6-Amino-5-(3-methoxy-phenyl)-pyridin-3-yl]-N-(2-dimethylamino-ethyl)-benzamide], which IC50 is on record?
A: The IC50 was under 1 µM.

Q: With CN(C)CCNC(=O)c1cccc(-c2cnc(N)c(-c3cccc(Oc4ccccc4)c3)c2)c1 [Y-049, 3-[6-Amino-5-(3-phenoxy-phenyl)-pyridin-3-yl]-N-(2-dimethylamino-ethyl)-benzamide] as the compound, how does the IC50 read?
A: The IC50 was under 1 µM.

Q: For CN(C)CCNC(=O)c1cccc(-c2cnc(N)c(-c3cccc(OC(F)(F)F)c3)c2)c1 [Y-050, 3-[6-Amino-5-(3-trifluoromethoxy-phenyl)-pyridin-3-yl]-N-(2-dimethylamino-ethyl)-benzamide], which IC50 is on record?
A: The IC50 was under 1 µM.

Q: CN(C)CCNC(=O)c1cccc(-c2cnc(N)c(-c3ccc(OCc4ccccc4)cc3)c2)c1 [Y-051, 3-[6-Amino-5-(4-benzyloxy-phenyl)-pyridin-3-yl]-N-(2-dimethylamino-ethyl)-benzamide] was tested. Which IC50 did it give?
A: The IC50 was under 1 µM.

Q: CN(C)CCNC(=O)c1cccc(-c2cnc(N)c(-c3ccc(Cl)c(F)c3)c2)c1 [Y-052, 3-[6-Amino-5-(4-chloro-3-fluoro-phenyl)-pyridin-3-yl]-N-(2-dimethylamino-ethyl)-benzamide] was tested. Which IC50 did it give?
A: The IC50 was under 1 µM.

Q: How did the IC50 turn out when CCSc1ccc(-c2cc(-c3cccc(C(=O)NCCN(C)C)c3)cnc2N)cc1 [Y-053, 3-[6-Amino-5-(4-ethylsulfanyl-phenyl)-pyridin-3-yl]-N-(2-dimethylamino-ethyl)-benzamide] was run?
A: The IC50 was under 1 µM.

Q: Which IC50 does the source give for COc1cc(F)ccc1-c1cc(-c2cccc(C(=O)NCCN(C)C)c2)cnc1N [Y-054, 3-[6-Amino-5-(4-fluoro-2-methoxy-phenyl)-pyridin-3-yl]-N-(2-dimethylamino-ethyl)-benzamide] here?
A: Its IC50 is 1 to 10 µM.

Q: Which IC50 does the source give for COc1cc(-c2cc(-c3cccc(C(N)=O)c3)cnc2N)ccc1F [Y-055, 3-[6-Amino-5-(4-fluoro-3-methoxy-phenyl)-pyridin-3-yl]-benzamide] here?
A: The IC50 was under 1 µM.

Q: For COc1cc(-c2cc(-c3cccc(C(=O)NCCN(C)C)c3)cnc2N)ccc1F [Y-056, 3-[6-Amino-5-(4-fluoro-3-methoxy-phenyl)-pyridin-3-yl]-N-(2-dimethylamino-ethyl)-benzamide], which IC50 is on record?
A: The IC50 was under 1 µM.

Q: With CN(C)CCNC(=O)c1cccc(-c2cnc(N)c(-c3ccc(F)c(C(F)(F)F)c3)c2)c1 [Y-057, 3-[6-Amino-5-(4-fluoro-3-trifluoromethyl-phenyl)-pyridin-3-yl]-N-(2-dimethylamino-ethyl)-benzamide] as the compound, how does the IC50 read?
A: The IC50 was under 1 µM.

Q: With CN(C)CCNC(=O)c1cccc(-c2cnc(N)c(-c3ccc(F)cc3)c2)c1 [Y-058, 3-[6-Amino-5-(4-fluoro-phenyl)-pyridin-3-yl]-N-(2-dimethylamino-ethyl)-benzamide] as the compound, how does the IC50 read?
A: The IC50 was under 1 µM.

Q: With COc1cc(-c2cc(-c3cccc(C(=O)NCCCN(C)C)c3)cnc2N)ccc1O [Y-060, 3-[6-Amino-5-(4-hydroxy-3-methoxy-phenyl)-pyridin-3-yl]-N-(3-dimethylamino-propyl)-benzamide] as the compound, how does the IC50 read?
A: Its IC50 is under 1 µM.

Q: With CN(C)CCNC(=O)c1cccc(-c2cnc(N)c(-c3ccc(CO)cc3)c2)c1 [Y-061, 3-[6-Amino-5-(4-hydroxymethyl-phenyl)-pyridin-3-yl]-N-(2-dimethylamino-ethyl)-benzamide] as the compound, how does the IC50 read?
A: The IC50 was under 1 µM.

Q: With CC(C)Cc1ccc(-c2cc(-c3cccc(C(=O)NCCN(C)C)c3)cnc2N)cc1 [Y-062, 3-[6-Amino-5-(4-isobutyl-phenyl)-pyridin-3-yl]-N-(2-dimethylamino-ethyl)-benzamide] as the compound, how does the IC50 read?
A: The IC50 was under 1 µM.

Q: COc1ccc(-c2cc(-c3cccc(C(=O)NCCN(C)C)c3)cnc2N)cc1 [Y-063, 3-[6-Amino-5-(4-methoxy-phenyl)-pyridin-3-yl]-N-(2-dimethylamino-ethyl)-benzamide] was tested. Which IC50 did it give?
A: The IC50 was under 1 µM.

Q: CN(C)CCNC(=O)c1cccc(-c2cnc(N)c(-c3ccc(OC(F)(F)F)cc3)c2)c1 [Y-064, 3-[6-Amino-5-(4-trifluoromethoxy-phenyl)-pyridin-3-yl]-N-(2-dimethylamino-ethyl)-benzamide] was tested. Which IC50 did it give?
A: Its IC50 is under 1 µM.

Q: How did the IC50 turn out when CN(C)CCNC(=O)c1cccc(-c2cnc(N)c(-c3ccc(OC4CCCCO4)cc3)c2)c1 (centres unmarked) [Y-065, 3-{6-Amino-5-[4-(tetrahydro-pyran-2-yloxy)-phenyl]-pyridin-3-yl}-N-(2-dimethylamino-ethyl)-benzamide] was run?
A: Its IC50 is under 1 µM.

Q: For COC(=O)c1ccc(-c2cc(-c3cccc(C(=O)NCCN(C)C)c3)cnc2N)cc1OC [Y-066, 4-{2-Amino-5-[3-(2-dimethylamino-ethylcarbamoyl)-phenyl]-pyridin-3-yl}-2-methoxy-benzoic acid methyl ester], which IC50 is on record?
A: Its IC50 is under 1 µM.

Q: For CN(C)CCNC(=O)c1cccc(-c2cnc(N)c(-c3ccc(Oc4ccccc4)cc3)c2)c1 [Y-067, 3-[6-Amino-5-(4-phenoxy-phenyl)-pyridin-3-yl]-N-(2-dimethylamino-ethyl)-benzamide], which IC50 is on record?
A: Its IC50 is under 1 µM.

Q: Which IC50 does the source give for CN(C)CCNC(=O)c1cccc(-c2cnc(N)c(-c3ccc(C(C)(C)C)cc3)c2)c1 [Y-068, 3-[6-Amino-5-(4-tert-butyl-phenyl)-pyridin-3-yl]-N-(2-dimethylamino-ethyl)-benzamide] here?
A: Its IC50 is under 1 µM.

Q: CN(C)CCNC(=O)c1cccc(-c2cnc(N)c(-c3ccc(C(F)(F)F)cc3)c2)c1 [Y-069, 3-[6-Amino-5-(4-trifluoromethyl-phenyl)-pyridin-3-yl]-N-(2-dimethylamino-ethyl)-benzamide] was tested. Which IC50 did it give?
A: Its IC50 is under 1 µM.

Q: CN(C)CCNC(=O)c1cccc(-c2cnc(N)c(-c3ccc(C(=O)c4ccccc4)cc3)c2)c1 [Y-070, 3-[6-Amino-5-(4-benzoyl-phenyl)-pyridin-3-yl]-N-(2-dimethylamino-ethyl)-benzamide] was tested. Which IC50 did it give?
A: Its IC50 is under 1 µM.

Q: With CN(C)CCNC(=O)c1cccc(-c2cnc(N)c(-c3ccnc(O)c3)c2)c1 [Y-071, 3-(2-Amino-2′-hydroxy-[3,4′]bipyridinyl-5-yl)-N-(2-dimethylamino-ethyl)-benzamide] as the compound, how does the IC50 read?
A: Its IC50 is under 1 µM.

Q: How did the IC50 turn out when CN(C)CCNC(=O)c1cccc(-c2cnc(N)c(-c3cccc(S(C)(=O)=O)c3)c2)c1 [Y-072, 3-[6-Amino-5-(3-methanesulfonyl-phenyl)-pyridin-3-yl]-N-(2-dimethylamino-ethyl)-benzamide] was run?
A: Its IC50 is 1 to 10 µM.

Q: For CCOc1cccc(-c2cc(-c3cccc(C(=O)NCCN(C)C)c3)cnc2N)c1 [Y-073, 3-[6-Amino-5-(3-ethoxy-phenyl)-pyridin-3-yl]-N-(2-dimethylamino-ethyl)-benzamide], which IC50 is on record?
A: The IC50 was 1 to 10 µM.

Q: How did the IC50 turn out when CNc1ncc(-c2cccc(C(=O)NCCN(C)C)c2)cc1-c1cccc(OC)c1 [Y-074, N-(2-Dimethylamino-ethyl)-3-[5-(3-methoxy-phenyl)-6-methylamino-pyridin-3-yl]-benzamide] was run?
A: Its IC50 is under 1 µM.

Q: With COc1cccc(-c2cc(-c3cccc(C(=O)N(C)CCN(C)C)c3)cnc2N)c1 [Y-075, 3-[6-Amino-5-(3-methoxy-phenyl)-pyridin-3-yl]-(2-dimethylamino-ethyl)-N-methyl-benzamide] as the compound, how does the IC50 read?
A: Its IC50 is under 1 µM.

Q: Which IC50 does the source give for CC(=O)Nc1cccc(-c2cc(-c3cccc(C(=O)NCCN(C)C)c3)cnc2N)c1 [Y-076, 3-[5-(3-Acetylamino-phenyl)-6-amino-pyridin-3-yl]-N-(2-dimethylamino-ethyl)-benzamide] here?
A: The IC50 was under 1 µM.

Q: How did the IC50 turn out when CN(C)CCNC(=O)c1cccc(-c2cnc(N)c(-c3cccc(O)c3)c2)c1 [Y-077, 3-[6-Amino-5-(3-hydroxy-phenyl)-pyridin-3-yl]-N-(2-dimethylamino-ethyl)-benzamide] was run?
A: Its IC50 is under 1 µM.

Q: Which IC50 does the source give for CN(C)CCNC(=O)c1cccc(-c2cnc(N)c(-c3cncc4ccccc34)c2)c1 [Y-078, 3-(6-Amino-5-isoquinolin-4-yl-pyridin-3-yl)-N-(2-dimethylamino-ethyl)-benzamide] here?
A: The IC50 was under 1 µM.

Q: How did the IC50 turn out when CN(C)CCNC(=O)c1cccc(-c2cnc(N)c(-c3ccc(O)cc3)c2)c1 [Y-079, 3-[6-Amino-5-(4-hydroxy-phenyl)-pyridin-3-yl]-N-(2-dimethylamino-ethyl)-benzamide] was run?
A: Its IC50 is under 1 µM.

Q: How did the IC50 turn out when CN(C)CCNC(=O)c1cccc(-c2cnc(N)c(-c3cccc(CC#N)c3)c2)c1 [Y-080, 3-[6-Amino-5-(3-cyanomethyl-phenyl)-pyridin-3-yl]-N-(2-dimethylamino-ethyl)-benzamide] was run?
A: The IC50 was under 1 µM.

Q: With COc1cc(OC)cc(-c2cc(-c3cccc(C(=O)NCCN(C)C)c3)cnc2N)c1 [Y-081, 3-[6-Amino-5-(3,5-dimethoxy-phenyl)-pyridin-3-yl]-N-(2-dimethylamino-ethyl)-benzamide] as the compound, how does the IC50 read?
A: The IC50 was under 1 µM.

Q: For CN(C)CCNC(=O)c1cccc(-c2cnc(N)c(-c3ccc4cc(O)ccc4c3)c2)c1 [Y-082, 3-[6-Amino-5-(6-hydroxy-naphthalen-2-yl)-pyridin-3-yl]-N-(2-dimethylamino-ethyl)-benzamide], which IC50 is on record?
A: The IC50 was under 1 µM.

Q: Which IC50 does the source give for COc1cccc(-c2cc(-c3cccc(C(=O)NCCN(C)C)c3)cnc2N)n1 [Y-083, 3-(2′-Amino-6-methoxy-[2,3′]bipyridinyl-5′-yl)-N-(2-dimethylamino-ethyl)-benzamide] here?
A: Its IC50 is under 1 µM.

Q: For CN(C)CCNC(=O)c1cccc(-c2cnc(N)c(-c3ccncc3)c2)c1 [Y-084, 3-(2-Amino-[3,4′]bipyridinyl-5-yl)-N-(2-dimethylamino-ethyl)-benzamide], which IC50 is on record?
A: Its IC50 is under 1 µM.
